Measured values reported in patent US9359451B2, “Methods and compositions for treating trauma-hemorrhage using estrogen and derivatives thereof” (THE UAB RESEARCH FOUNDATION, priority 2012, dated 2016).

Assays:
[1] = test system: ovariectomized female CBA/J mice; experiment: Trauma-hemorrhage in ovariectomized female mice: plasma E2 and uterine wet weight; assay type: in vivo, mouse; conditions: 24 h after E2 sc; sham operated or hemorrhaged, vs vehicle
Description: To test this, ovariectomized female CBA/J mice were subjected to laparotomy (i.e., soft tissue trauma) and hemorrhagic shock (35±5 mmHg for 90 min, then resuscitated) or sham operation. […] Immune cells were isolated 24 h thereafter.
Experimental groups. Ovariectomy was performed in female CBA/J mice 2 wk before trauma-hemorrhage using two dorsolateral incisions. […] Two weeks after ovariectomy, the animals were divided into four groups. Groups 1 and 2 consisted of sham-operated ovariectomized females, which were neither hemorrhaged nor resuscitated. Animals in groups 3 and 4 consisted of ovariectomized females, which were subjected to the trauma-hemorrhage procedure. […] Each group consisted of 7-8 animals.
Trauma-hemorrhage procedure. […] Blood pressure was constantly monitored by attaching one of the catheters to a blood pressure analyzer (Micro-Med, Louisville, Ky.). […]
Determination of plasma E2 concentration. E2 concentration was determined using a commercially available radio-immunoassay (ICN Biomedicals, Costa Mesa, Calif.) as described by the manufacturer.

Splenocytes = experiment: Splenocyte proliferation and cytokine release after trauma-hemorrhage (ex vivo, Con A); assay type: in vivo, mouse
Description: Experimental groups. Ovariectomy was performed in female CBA/J mice 2 wk before trauma-hemorrhage using two dorsolateral incisions. […] Two weeks after ovariectomy, the animals were divided into four groups. Groups 1 and 2 consisted of sham-operated ovariectomized females, which were neither hemorrhaged nor resuscitated. Animals in groups 3 and 4 consisted of ovariectomized females, which were subjected to the trauma-hemorrhage procedure. Immediately before initiation of fluid resuscitation, animals in groups 1 and 3 received a subcutaneous injection of vehicle ([…] corn oil), and animals in groups 2 and 4 were treated with E2 ([…]/25 g body wt dissolved in […] corn oil). Each group consisted of 7-8 animals.
Trauma-hemorrhage procedure. Mice in the trauma-hemorrhage groups were lightly anesthetized with methoxyflurane (Metofane; Pitman Moore, Mundelein, Ill.) and restrained in a supine position, and a 2.5-cm midline laparotomy (i.e., soft tissue trauma induced) was performed, which was then closed aseptically in two layers using 6-0 Ethilon sutures (Ethicon, Somerville, N.J.). Both femoral arteries were then aseptically cannulated with polyethylene-10 tubing (Clay-Adams, Parsippany, N.J.) using a minimal dissection technique, and the animals were allowed to awaken. Blood pressure was constantly monitored by attaching one of the catheters to a blood pressure analyzer (Micro-Med, Louisville, Ky.). Lidocaine was applied to the incision sites to provide analgesia during the study period. Upon awakening, the animals were bled through the other catheter to a mean arterial blood pressure of 35±5 mmHg (mean arterial blood pressure prehemorrhage was 95±5 mmHg), which was maintained for 90 min. At the end of that procedure, the animals were resuscitated with four times the shed blood volume in the form of lactated Ringer solution. The catheters were then removed, the vessels were ligated, and the groin incisions were closed. Sham-operated animals underwent the same surgical procedure, which included ligation of both femoral arteries, but neither hemorrhage nor fluid resuscitation was carried out. There was no mortality observed in this model of trauma-hemorrhage.
Preparation of splenocyte culture. At 24 h after sham operation or trauma-hemorrhage and resuscitation, the spleens were removed aseptically and placed in separate petri dishes containing 4° C. phosphate-buffered saline (PBS) solution. Splenocytes were isolated as previously described in detail (Zellweger 1995). Briefly, the organs were gently ground between frosted microscope slides to produce a single cell suspension. This suspension was centrifuged at 300 g for 15 min. After resuspension, the erythrocytes were lysed hypotonically, and the remaining cells were washed with PBS by centrifugation (300 g, 15 min). Viability was tested using trypan blue exclusion and found to be ˜95% regardless of the group assessed. […] The ability of the splenocyte cultures to produce cytokines in response to a mitogenic challenge was assessed by incubation for 48 h (at 37° C., 5% CO2, and 90% humidity) in the presence of […] concanavalin A (Con A; Pharmacia/LKB Biotech, Piscataway, N.J.). […]
Splenocyte proliferation. […] The cells' ability to proliferate in response to mitogenic stimulation with 0 (negative control) or […] Con A was measured by [^3H]thymidine incorporation technique as previously de scribed (Stephan 1987). […]

[2] = test system: Sprague-Dawley adult male rats; experiment: Traumatic brain injury (lateral fluid percussion): ICP, CPP and pbtO2 monitoring; assay type: in vivo, rat
Description: Sprague-Dawley adult male rats were divided into 4 groups: vehicle, E2-SO4 (1 mg/kg), sham+vehicle and sham+E2-SO4; n=5/group. The TBI model was lateral fluid percussion injury (LFP), induced via a hydraulic pressure pulse to the anesthetized rat's exposed brain. This was introduced through a burr hole in the lateral skull prepared one day prior to LFP. A single iv dose of E2-SO4 or saline vehicle was administered 1 hr after LFP. Physiological parameters were measured 24 hr post-injury.
In a second experiment, the efficacy of E2-SO4 treatment for TBI in a lateral fluid percussion (LFP) model was examined. This involved 6 groups of rats (n=5/group). All rats received a craniectomy. Groups 1, 2, 4 and 5 received LFP injury. Groups 1 and 4 were treated with E2 (1 mg/kg) 1 hr post-injury, groups 2 and 5 were vehicle (Veh)-treated and groups 3 and 6 were sham. Groups 1-3 underwent intracranial pressure (ICP), cerebral perfusion pressure (CPP) and partial oxygen pressure (pbtO2) monitoring. Groups 4-6 underwent fludoexoyglucose (FDG)-PET/CT and diffusion tensor imaging (DTI) analysis on days 1 and 7 post-induction. Relative standard uptake values (SUV) of upper half of brain to central value, fractional anisotropy (FA) and apparent diffusion coefficient (ADC) maps were calculated.
FIG. 48B is a plot of cerebral perfusion pressure, which is a derivative of mean arterial pressure less ICP. […] The X axis is shown for an extended 2 hours to confirm stability for the various probes used.
The clinical manifestation of edema after TBI can be seen as increased intracranial pressure, with lower brain perfusion pressure and reduced oxygen tension. […] FIG. 44 compares treatments for TBI with hormones, measured over a 120 min period to control the effects of the invasive probe on pressures. The treatments are progesterone (T+progesterone: magenta), progesterone plus E2-SO4 (T+E+P: brown), E2-SO4 (T+E2SO4: red) and EE-3-SO4 (T+EE-3SO4: yellow).

degenerate neurons = experiment: Traumatic brain injury: Fluro-Jade staining of degenerate neurons; assay type: in vivo, rat; conditions: brain cortex or CA 2/3 hippocampus, 24 hours after 1 mg/kg iv given 1 hour after LFP TBI
From the text: As such, the lesser the FJ staining, the greater the neuroprotection. Sections stained with FJ are quantified as FJ positive cells, and are taken from brain cortex or CA 2/3 region of the hippocampus. The groups shown in the graph above are sham+vehicle, sham+E2, TBI+vehicle and TBI+E2.

cardiac performance = experiment: SPECT-CT of cardiac performance after severe hemorrhage; assay type: in vivo, rat; conditions: FIG. 46
Description: This was measured by SPECT-CT (single photon emission computed tomography-computed tomography) which enables the measurement of the volume of blood forced from the heart visualized through 3-D, real-time imaging (FIG. 46).

[3] = 24 h after trauma-hemorrhage, Con A 48 h

SMILES: C[C@]12CC[C@@H]3c4ccc(O)cc4CC[C@H]3[C@@H]1CC[C@@H]2O [17β-estradiol]
- uterine wet weight [1]: significantly increased
- splenocyte IFN-γ release (Splenocytes; [3]): no depression of IFN-γ production was observed
- splenocyte IL-2 production (Splenocytes; [3]): restored IL-2 productive capacity
- splenocyte IL-3 release (Splenocytes; [3]): significantly improved splenocyte IL-3 release capacity
- splenocyte proliferative capacity (Splenocytes; 24 h after trauma-hemorrhage, Con A, [3H]thymidine): no depression of splenocyte proliferative capacity was observed
- splenocyte IL-10 production (Splenocytes; after trauma-hemorrhage compared with E2-treated sham-operated animals): significantly reduced IL-10 production
- oxygen delivery to the injured brain ([2]; FIG. 48, E2 treatment administered 24 hours after TBI): enhances oxygen delivery to the injured brain
- CPP (cerebral perfusion pressure) ([2]; TBI (LFP), 1 mg/kg 1 hr post-injury, Veh 65.2±1.4, sham 82.1±1.3): 75.7±1.4 mmHg
- pbtO2 (brain tissue oxygen partial pressure) ([2]; TBI (LFP), 1 mg/kg iv 1 hr after injury, 24 hr post-injury, vehicle 15.8±1.3, sham 39.6): 34.1±1.6 mmHg
- Fluro-Jade positive cells (neurodegeneration) (degenerate neurons): greater that twofold fewer cells undergoing neurodegeneration
- cardiac performance as ejection fraction (SPECT-CT) (cardiac performance): substantially enhance cardiac performance as ejection fraction
